Target: T1, human CCR10 (Homo sapiens, UniProt P46092)
T1 construct: expressed in transfected cells; host or cells: KJMGER8 cell (cell line derived from Namalwa cell); expression induced with 10 nmol/L β-estradiol
T1 sequence (P46092 1-362): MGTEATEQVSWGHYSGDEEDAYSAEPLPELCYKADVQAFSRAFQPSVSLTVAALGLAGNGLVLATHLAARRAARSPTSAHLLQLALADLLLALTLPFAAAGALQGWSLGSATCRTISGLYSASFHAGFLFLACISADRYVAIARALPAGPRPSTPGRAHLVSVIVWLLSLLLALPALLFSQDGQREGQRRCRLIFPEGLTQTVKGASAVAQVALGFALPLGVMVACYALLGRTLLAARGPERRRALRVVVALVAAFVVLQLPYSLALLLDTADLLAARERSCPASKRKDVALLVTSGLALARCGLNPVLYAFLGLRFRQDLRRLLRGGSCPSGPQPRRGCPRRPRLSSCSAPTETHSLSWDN
Experiment: Calcium assay of human CCR10 (inhibition of CTACK-induced increase in intracellular calcium ion concentration in hCCR10G16 cells)
Format: cell-based
Details: test compound 100 nmol/L, human recombinant CTACK, hCCR10G16 cells (KJMGER8/Namalwa-derived, Gα16 co-expressed), FLIPR or FDSS; for inhibition at 0.1 µM: read-out: Inhibitory rate (%) for an increase in calcium ion concentration
Experimental: A CCR10-inducible expression plasmid was produced according to a known method (“Analytical Biochemistry”, 2006, vol. 400, page 163). A DNA encoding human CCR10 was obtained by PCR. Using human chromosomal DNA (100 ng; manufactured by Clontech Laboratories, Inc.) as a template, a synthetic DNA having the sequences shown by SEQ ID NOs: 1 and 2 as a human CCR10 cDNA specific primer, and Pyrobest DNA Polymerase (manufactured by TAKARA SHUZO CO. LTD.) as an enzyme, a DNA encoding human CCR10 was obtained by PCR. As a buffer solution for PCR, the buffer solution attached to the enzyme was diluted 10-fold with deionized water and used. Using Thermal Cycler DNA Engine (manufactured by MJ Research), PCR was performed by 35 cycles of reactions composed of an incubation at 90° C. for 2 min, at 94° C. for 30 seconds, at an anneal temperature of 58° C. for 30 seconds, and at 72° C. for 1 min.
The amplified PCR fragment was cleaved with HindIII and NotI, then a human CCR10 DNA fragment was recovered by an agarose gel electrophoresis method. The fragment was incorporated in between the corresponding restriction enzyme sites (HindIII-NotI) of an inducible expression vector, whereby a human CCR10-inducible expression plasmid were prepared.
Using a primer specific to the sequence of the plasmid (synthetic DNA having the sequences shown by SEQ ID NOs: 3 and 4), the sequence of human CCR10 DNA region was determined. For the determination of the base sequence, DNA sequencer 377 (manufactured by PerkinElmer) and a reaction kit (ABI Prism (registered trade mark) BigDye (registered trade mark) Terminator Cycle Sequencing Ready Reaction kit: manufactured by Applied Biosystems) were used. The sequence of human CCR10 DNA matched with the sequence (NM_016602) registered in GenBank.
Cells for the detection of the signal from human CCR10 by a calcium assay were prepared. Human CCR10-inducible expressing cells whose host cell is KJMGER8 cell (cell line derived from Namalwa cell) were prepared according to a known method (“Analy Biochem”, 2006, vol. 400, page 163). Human CCR10-inducible expression plasmid produced above and Gα16 expression plasmid were co-transfected into KJMGER8 cell by an electroporation method (“Cytotechnology”, 1990, vol. 3, page 133), whereby a signal from human CCR10 could be detected by a calcium assay (hereinafter to be referred to as hCCR10G16 cell). Gα16 expression plasmid was produced by incorporating human Gα16 DNA into expression vector pAMoh (WO03/087366). Induced expression of human CCR10 was performed by cultivating hCCR10G16 cells in the presence of 10 nmol/L β-estradiol (manufactured by Sigma Ltd.) for 24 hr.
Cells expressing human CCR10 induced by the above-mentioned method were suspended in RPMI1640 medium and adjusted to cell density of 1.25×10^6 cells/mL. This mixture was dispensed to a 384 well clear bottom plate (manufactured by Corning Incorporated) at 20 μL/well, and these were incubated at 37° C. for several dozen minutes. A loading buffer prepared according to the protocol attached to FLIPR Calcium 3 assay kit (manufactured by Molecular Device) was dispensed to this plate at 20 μL/well, and the plate was incubated at 37° C. for 60 min. A 33 μmol/L DMSO solution of the test compound was diluted 37-fold with RPMI1640 medium and the resulting solution was added at 5 μL/well, and the mixture was incubated at 37° C. for 30 min. 300 nmol/L human recombinant CTACK (manufactured by R and D Systems) diluted with RPMI1640 medium containing 1 w/v % bovine serum albumin was added at 5 μL/well. Change of the intracellular calcium ion concentration for about 5 min after the addition was measured by FLIPR (manufactured by Molecular Device) or FDSS (manufactured by Hamamatsu Photonics K.K.). The difference between the maximum fluorescence intensity and the minimum fluorescence intensity for 5 min was calculated, and taken as the measurement value (maximum fluorescence intensity−minimum fluorescence intensity). […]

inhibition at 0.1 µM [%] | Inhibitory rate (%) for an increase in calcium ion concentration [%] | SMILES
> 100 |  | CC(=O)NS(=O)(=O)c1cnn2c(Nc3ccc(F)cc3C)c(C(=O)N3CCC(c4ccccc4)CC3)cnc12 [a-17, N-[7-(4-Fluoro-2-methylphenylamino)-6-(4-phenylpiperidine-1-carbonyl)pyrazolo[1,5-a]pyrimidin-3-ylsulfonyl]acetamide]
> 100 |  | Cc1ccc(Cl)c(Nc2c(C(=O)N3CCC(c4ccc(F)cc4)CC3)cnc3c(S(=O)(=O)NC(=O)C4CC4)cnn23)c1 [a-12, N-{7-(2-Chloro-5-methylphenylamino)-6-[4-(4-fluorophenyl)piperidine-1-carbonyl]pyrazolo[1,5-a]pyrimidin-3-ylsulfonyl}cyclopropanecarboxamide]
> 100 |  | Cc1cc(F)ccc1Nc1c(C(=O)N2CCC(c3ccccc3)CC2)cnc2c(S(=O)(=O)NC(=O)C(F)(F)F)cnn12 [a-70, 2,2,2-Trifluoro-N-[7-(4-fluoro-2-methylphenylamino)-6-(4-phenylpiperidine-1-carbonyl)pyrazolo[1,5-a]pyrimidin-3-ylsulfonyl]acetamide]
98.9 |  | O=C(NS(=O)(=O)c1cnn2c(Nc3ccccc3Cl)c(C(=O)N3CCC(c4ccccc4)CC3)cnc12)C1CC1 [a-6, N-[7-(2-Chlorophenylamino)-6-(4-phenylpiperidine-1-carbonyl)pyrazolo[1,5-a]pyrimidin-3-ylsulfonyl]cyclopropanecarboxamide]
 | 68.9 | Cc1cc(F)ccc1Nc1c(C(=O)N2CCC(c3ccccc3)CC2)cnc2c(S(=O)(=O)N=CN(C)C)cnn12 [a-73, N-[7-(4-Fluoro-2-methylphenylamino)-6-(4-phenylpiperidine-1-carbonyl)pyrazolo[1,5-a]pyrimidin-3-ylsulfonyl]-N,N-dimethylformimidamide]
88.8 |  | Cc1cc(F)ccc1Nc1c(C(=O)N2CCC(c3ccccc3)CC2)cnc2c(S(=O)(=O)NS(C)(=O)=O)cnn12 [a-71, 7-(4-Fluoro-2-methylphenylamino)-N-methylsulfonyl-6-(4-phenylpiperidine-1-carbonyl)pyrazolo[1,5-a]pyrimidine-3-sulfonamide]
> 100 |  | CC(=O)NS(=O)(=O)c1cnn2c(Nc3cccc(Cl)c3Cl)c(C(=O)N3CCC(c4ccc(F)cc4)CC3)cnc12 [a-38, N-{7-(2,3-Dichlorophenylamino)-6-[4-(4-fluorophenyl)piperidine-1-carbonyl]pyrazolo[1,5-a]pyrimidin-3-ylsulfonyl}acetamide]
80.3 |  | CCNS(=O)(=O)c1cnn2c(Nc3cc(C)ccc3Cl)c(C(=O)N3CCC4(CC3)OCc3ccccc34)cnc12 [a-45, N-Ethyl-7-(2-chloro-5-methylphenylamino)-6-[3H-spiro(isobenzofuran-1,4′-piperidine)-1′-carbonyl]pyrazolo[1,5-a]pyrimidine-3-sulfonamide]
81.8 |  | CCNC(=S)NS(=O)(=O)c1cnn2c(Nc3ccc(F)cc3C)c(C(=O)N3CCC(c4ccccc4)CC3)cnc12 [a-69, N-Ethylcarbamothioyl-7-(4-fluoro-2-methylphenylamino)-6-(4-phenylpiperidine-1-carbonyl)pyrazolo[1,5-a]pyrimidine-3-sulfonamide]
> 100 |  | O=C(NC1CC1)NS(=O)(=O)c1cnn2c(Nc3ccc(F)cc3Cl)c(C(=O)N3CCC(c4ccc(F)cc4)CC3)cnc12 [a-21, 7-(2-Chloro-4-fluorophenylamino)-N-(cyclopropylcarbamoyl)-6-[4-(4-fluorophenyl)piperidine-1-carbonyl]pyrazolo[1,5-a]pyrimidine-3-sulfonamide]
> 100 |  | CCC(=O)NS(=O)(=O)c1cnn2c(Nc3cc(C(F)(F)F)ccc3Cl)c(C(=O)N3CCC(c4ccc(F)cc4)CC3)cnc12 [a-29, N-{7-(2-Chloro-5-trifluoromethylphenylamino)-6-[4-(4-fluorophenyl)piperidine-1-carbonyl]pyrazolo[1,5-a]pyrimidin-3-ylsulfonyl}propionamide]
> 100 |  | O=C(NS(=O)(=O)c1cnn2c(Nc3cc(Cl)ccc3Cl)c(C(=O)N3CCC4(CC3)OCc3ccccc34)cnc12)C1CC1 [a-54, N-{7-(2,5-Dichlorophenylamino)-6-[3H-spiro(isobenzofuran-1,4′-piperidine)-1′-carbonyl]pyrazolo[1,5-a]pyrimidin-3-ylsulfonyl}cyclopropanecarboxamide]
> 100 |  | CONS(=O)(=O)c1cnn2c(Nc3cc(Cl)ccc3Cl)c(C(=O)N3CCC(c4ccc(F)cc4)CC3)cnc12 [a-27, 7-(2,5-Dichlorophenylamino)-6-[4-(4-fluorophenyl)piperidine-1-carbonyl]-N-methoxypyrazolo[1,5-a]pyrimidine-3-sulfonamide]
24.3 |  | CCNC(=O)NS(=O)(=O)c1cnn2c(Nc3cc(C)ccc3Cl)c(C(=O)N3CC4(C3)CN(c3ccc(F)cc3)C4)cnc12 [a-61, 7-(2-Chloro-5-methylphenylamino)-N-(ethylcarbamoyl)-6-[6-(4-fluorophenyl)-2,6-diazaspiro[3,3]heptane-2-carbonyl]pyrazolo[1,5-a]pyrimidine-3-sulfonamide]
99.6 |  | COC(=O)NS(=O)(=O)c1cnn2c(Nc3ccccc3Cl)c(C(=O)N3CCC(c4ccccc4)CC3)cnc12 [a-8, Methyl 7-(2-chlorophenylamino)-6-(4-phenylpiperidine-1-carbonyl)pyrazolo[1,5-a]pyrimidin-3-ylsulfonylcarbamate]
> 100 |  | CCC(=O)NS(=O)(=O)c1cnn2c(Nc3cc(C)ccc3F)c(C(=O)N3CCC(c4ccc(F)cc4)CC3)cnc12 [a-31, N-{7-(2-Fluoro-5-methylphenylamino)-6-[4-(4-fluorophenyl)piperidine-1-carbonyl]pyrazolo[1,5-a]pyrimidin-3-ylsulfonyl}propionamide]
> 100 |  | CCONS(=O)(=O)c1cnn2c(Nc3cc(Cl)ccc3Cl)c(C(=O)N3CCC(c4ccc(F)cc4)CC3)cnc12 [a-28, 7-(2,5-Dichlorophenylamino)-N-ethoxy-6-[4-(4-fluorophenyl)piperidine-1-carbonyl]-pyrazolo[1,5-a]pyrimidine-3-sulfonamide]
> 100 |  | CC(=O)NS(=O)(=O)c1cnn2c(Nc3cc(Cl)ccc3F)c(C(=O)N3CCC(c4ccc(F)cc4)CC3)cnc12 [a-33, N-{7-(5-Chloro-2-fluorophenylamino)-6-[4-(4-fluorophenyl)piperidine-1-carbonyl]pyrazolo[1,5-a]pyrimidin-3-ylsulfonyl}acetamide]
